Results on 46 sequences are retold here after article PMC12102759 (Protein Science : A Publication of the Protein Society, 2025).

This test deals with G3BP1 NFT2. The test is classed as binding, human. The settings on record: library DMS-CoV; bait G3BP1 NFT2; prey N; peptide RNAPRITFGGPSDSTG; listed as aa = residue placed at this position; column sums to 1.
For the sequence “RNAPRITFGGPSDSTG S14K (RNAPRITFGGPSDKTG)”, the “DMS PSSM value, S (position 14)” value stood at 0.
Consider RNAPRITFGGPSDSTG A3I (RNIPRITFGGPSDSTG), for which the “DMS PSSM value, A (position 3)” value amounted to 0.
RNAPRITFGGPSDSTG R5S (RNAPSITFGGPSDSTG): the “DMS PSSM value, R (position 5)” value amounted to 0.002286.
With RNAPRITFGGPSDSTG P4G (RNAGRITFGGPSDSTG), the “DMS PSSM value, P (position 4)” value is recorded as 0.
In the case of RNAPRITFGGPSDSTG F8T (RNAPRITTGGPSDSTG), the “DMS PSSM value, F (position 8)” value turned out to be 0.
Turning to “RNAPRITFGGPSDSTG S12P (RNAPRITFGGPPDSTG)”, the “DMS PSSM value, S (position 12)” value is 0.
With RNAPRITFGGPSDSTG A3D (RNDPRITFGGPSDSTG), the “DMS PSSM value, A (position 3)” value is 0.1526.
In the case of RNAPRITFGGPSDSTG A3M (RNMPRITFGGPSDSTG), the “DMS PSSM value, A (position 3)” value came out at 0.
Turning to RNAPRITFGGPSDSTG F8L (RNAPRITLGGPSDSTG), the “DMS PSSM value, F (position 8)” value is 0.
Consider “RNAPRITFGGPSDSTG S14W (RNAPRITFGGPSDWTG)”, for which the “DMS PSSM value, S (position 14)” value was 0.
For “RNAPRITFGGPSDSTG G10E (RNAPRITFGEPSDSTG)”, the “DMS PSSM value, G (position 10)” value stood at 0.
With “RNAPRITFGGPSDSTG S12G (RNAPRITFGGPGDSTG)”, the “DMS PSSM value, S (position 12)” value came to 0.
As to RNAPRITFGGPSDSTG G9D (RNAPRITFDGPSDSTG), the “DMS PSSM value, G (position 9)” value worked out at 1.
For the sequence “RNAPRITFGGPSDSTG D13W (RNAPRITFGGPSWSTG)”, the “DMS PSSM value, D (position 13)” value is given as 0.
For “RNAPRITFGGPSDSTG G16N (RNAPRITFGGPSDSTN)”, the “DMS PSSM value, G (position 16)” value is listed as 1.
Regarding “RNAPRITFGGPSDSTG S12W (RNAPRITFGGPWDSTG)”, the “DMS PSSM value, S (position 12)” value amounted to 0.
The same measure, in the same setting: under “RNAPRITFGGPSDSTG S12H (RNAPRITFGGPHDSTG)” stands 0.
Consider RNAPRITFGGPSDSTG P4A (RNAARITFGGPSDSTG), for which the “DMS PSSM value, P (position 4)” value is given as 0.
On the same count and under the same terms, under RNAPRITFGGPSDSTG P4Y (RNAYRITFGGPSDSTG) stands 0.
Regarding “RNAPRITFGGPSDSTG D13A (RNAPRITFGGPSASTG)”, the “DMS PSSM value, D (position 13)” value is recorded as 0.
Consider “RNAPRITFGGPSDSTG G10A (RNAPRITFGAPSDSTG)”, for which the “DMS PSSM value, G (position 10)” value stood at 1.
As for RNAPRITFGGPSDSTG G9V (RNAPRITFVGPSDSTG), the “DMS PSSM value, G (position 9)” value amounted to 0.
Take “RNAPRITFGGPSDSTG G16P (RNAPRITFGGPSDSTP)”: the “DMS PSSM value, G (position 16)” value is reported as 0.
On to RNAPRITFGGPSDSTG R5D (RNAPDITFGGPSDSTG), for which the “DMS PSSM value, R (position 5)” value was 0.0001605.
RNAPRITFGGPSDSTG N2R (RRAPRITFGGPSDSTG): the “DMS PSSM value, N (position 2)” value turned out to be 0.
For the sequence RNAPRITFGGPSDSTG P4S (RNASRITFGGPSDSTG), the “DMS PSSM value, P (position 4)” value came out at 0.
Consider RNAPRITFGGPSDSTG R5G (RNAPGITFGGPSDSTG), for which the “DMS PSSM value, R (position 5)” value turned out to be 0.
Turning to RNAPRITFGGPSDSTG I6N (RNAPRNTFGGPSDSTG), the “DMS PSSM value, I (position 6)” value was 0.
As to “RNAPRITFGGPSDSTG P11R (RNAPRITFGGRSDSTG)”, the “DMS PSSM value, P (position 11)” value is reported as 0.
On to RNAPRITFGGPSDSTG G9R (RNAPRITFRGPSDSTG), for which the “DMS PSSM value, G (position 9)” value is reported as 0.
On to RNAPRITFGGPSDSTG G9E (RNAPRITFEGPSDSTG), for which the “DMS PSSM value, G (position 9)” value was found to be 0.
On to “RNAPRITFGGPSDSTG P11I (RNAPRITFGGISDSTG)”, for which the “DMS PSSM value, P (position 11)” value turned out to be 0.
Take “RNAPRITFGGPSDSTG G10Q (RNAPRITFGQPSDSTG)”: the “DMS PSSM value, G (position 10)” value is 0.
As for “RNAPRITFGGPSDSTG S12K (RNAPRITFGGPKDSTG)”, the “DMS PSSM value, S (position 12)” value amounted to 0.
Take RNAPRITFGGPSDSTG G9W (RNAPRITFWGPSDSTG): the “DMS PSSM value, G (position 9)” value came to 0.
For RNAPRITFGGPSDSTG N2T (RTAPRITFGGPSDSTG), the “DMS PSSM value, N (position 2)” value stood at 0.
In the case of “RNAPRITFGGPSDSTG T15L (RNAPRITFGGPSDSLG)”, the “DMS PSSM value, T (position 15)” value worked out at 0.
Take RNAPRITFGGPSDSTG A3H (RNHPRITFGGPSDSTG): the “DMS PSSM value, A (position 3)” value is reported as 0.
On to RNAPRITFGGPSDSTG T7S (RNAPRISFGGPSDSTG), for which the “DMS PSSM value, T (position 7)” value amounted to 0.
“RNAPRITFGGPSDSTG P11G (RNAPRITFGGGSDSTG)”: the “DMS PSSM value, P (position 11)” value stood at 0.
As to RNAPRITFGGPSDSTG I6D (RNAPRDTFGGPSDSTG), the “DMS PSSM value, I (position 6)” value came to 0.
Take “RNAPRITFGGPSDSTG P11F (RNAPRITFGGFSDSTG)”: the “DMS PSSM value, P (position 11)” value came to 0.
On to “RNAPRITFGGPSDSTG S14E (RNAPRITFGGPSDETG)”, for which the “DMS PSSM value, S (position 14)” value was 0.
Regarding RNAPRITFGGPSDSTG T7H (RNAPRIHFGGPSDSTG), the “DMS PSSM value, T (position 7)” value was found to be 0.
Take RNAPRITFGGPSDSTG T7F (RNAPRIFFGGPSDSTG): the “DMS PSSM value, T (position 7)” value was found to be 0.
“RNAPRITFGGPSDSTG D13V (RNAPRITFGGPSVSTG)”: the “DMS PSSM value, D (position 13)” value was 0.
